According to PubChem BioAssay (NCI):
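Cultured in 96-well plates, cells were exposed to test compound for 48 hours across five concentrations. TGI: total growth inhibition.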

How the values were obtained:
Assay in all cases: growth of human tumour cells (NCI), 48 h
[1] = test system: SK-MEL-2 melanoma
[2] = test system: K-562 leukemia
[3] = test system: SK-MEL-5 melanoma
[4] = test system: MDA-MB-435
[5] = test system: A549 NSCLC
[6] = test system: OVCAR-5 ovarian
[7] = test system: HOP-62 NSCLC
[8] = test system: RXF 393 renal
[9] = test system: TK-10 renal
[10] = test system: UO-31 renal
[11] = test system: T-47D breast
[12] = test system: KM12 colon
[13] = test system: UACC-257 melanoma
[14] = test system: UACC-62 melanoma
[15] = test system: U251 CNS
[16] = test system: MDA-N
[17] = test system: NCI-H460 lung
[18] = test system: SN12C renal
[19] = test system: MOLT-4 leukemia
[20] = test system: MDA-MB-231 breast
[21] = test system: PC-3 prostate
[22] = test system: HCC-2998 colon
[23] = test system: SR leukemia
[24] = test system: CAKI-1 renal
[25] = test system: HT29 colon
[26] = test system: OVCAR-8 ovarian
[27] = test system: M14 melanoma
[28] = test system: LOX IMVI melanoma
[29] = test system: MCF7 breast
[30] = test system: SNB-75 CNS
[31] = test system: SF-295 CNS
[32] = test system: NCI-H23 lung
[33] = test system: COLO 205 colon
[34] = test system: SNB-19 CNS
[35] = test system: SK-OV-3 ovarian
[36] = test system: HS 578T breast
[37] = test system: HL-60(TB) leukemia
[38] = test system: OVCAR-3 ovarian
[39] = test system: HCT-116 colon
[40] = test system: 786-0 renal
[41] = test system: A498 renal
[42] = test system: SF-539 CNS
[43] = test system: SW-620 colon
[44] = test system: HCT-15 colon
[45] = test system: CCRF-CEM leukemia
[46] = test system: SK-MEL-28 melanoma
[47] = test system: IGROV1 ovarian
[48] = test system: RPMI-8226 leukemia
[49] = test system: EKVX NSCLC
[50] = test system: DU-145 prostate
[51] = test system: HOP-92 NSCLC
[52] = test system: ACHN renal
[53] = test system: SF-268 CNS
[54] = test system: NCI/ADR-RES ovarian
[55] = test system: NCI-H226 lung
[56] = test system: MALME-3M melanoma
[57] = test system: NCI-H522 lung
[58] = test system: OVCAR-4 ovarian

Measured: TGI

O=C(O)c1ccccc1N=Nc1c(O)c(S(=O)(=O)O)cc2cc(S(=O)(=O)O)ccc12
> 100 µM: [1] | [2] | [3] | [4] | [5] | [6] | [7] | [8] | [9] | [10] | [11] | [12] | [13] | [14] | [15] | [16] | [17] | [18] | [19] | [20] | [21] | [22] | [23] | [24] | [25] | [26] | [27] | [28] | [29] | [30] | [31] | [32] | [33] | [34] | [35] | [36] | [37] | [38] | [39] | [40] | [41] | [42] | [43] | [44] | [45] | [46] | [47] | [48] | [49] | [50] | [51] | [52] | [53]

N#C/C(C(=S)NCc1ccccc1)=C(/N)N1CCCC1
> 100 µM: [1] | [2] | [3] | [4] | [5] | [54] | [6] | [7] | [8] | [9] | [10] | [11] | [12] | [13] | [14] | [15] | [16] | [17] | [18] | [55] | [19] | [20] | [21] | [22] | [23] | [24] | [25] | [26] | [27] | [28] | [31] | [56] | [32] | [33] | [34] | [35] | [36] | [37] | [57] | [38] | [39] | [40] | [41] | [42] | [43] | [44] | [45] | [46] | [47] | [48] | [49] | [50] | [51] | [52] | [53] | [58]
